{"source": "patent US8633179B2", "about": "“Synergistic interaction of NOTCH-1 inhibitors with glucocorticoids” (priority 2007, dated 2014)", "key": {"TALL1 cells": {"system": "TALL1 cells", "test": "Cell viability assay", "format": "cell-based, human", "procedure": "(§1) FIG. 1. […] (a-c). […] (e) Percentage of apoptotic cells (annexinV positive/PI negative) in CUTLL1 (72 hours), KOPTK1 (48 hours) and TALL1 cells (72 hours) treated with DMSO (control), CompE (100 nM), dexamethasone (1 μM) and dexamethasone (1 μM) plus CompE (100 nM). […] Data in (a-f) are means±standard deviation (s.d.) of triplicate experiments. Statistical significance was assessed with Student's t-test.\n(§2) Proliferation and cell size assays. Cell growth ratios were determined by a colorimetric assay using the Cell Proliferation Kit I (MU) (Roche) in cell lines treated with different antileukemic drugs in the presence or absence of CompE (100 nM). The range of concentrations used in these experiments was: dexamethasone (10^−10 to […]), etoposide (10^−10 to 10^−4 M), methotrexate (10^−10 to 10^−4 M), L-Asparaginase (10^−8 to 10^−2 g/l) and vincristine (10^−12 to 10^−6 M)."}, "KOPTK1 cells": {"system": "KOPTK1 cells", "test": "Cell viability assay", "format": "cell-based, human", "procedure": "as §1, §2"}, "PARP cleavage": {"system": "PARP cleavage", "test": "Western blot analysis of PARP cleavage in CUTLL1 cells", "format": "cell-based, human", "procedure": "as §1\nWestern blot analysis. Antibodies against glucocorticoid receptor (E-20, Santa Cruz Biotechnology), BIM (Cell Signaling Technologies); BMF (BD Bioscience) and α-actin (C-11, Santa Cruz Biotechnology) were used in immunoblot assays following manufacturer instructions."}, "CUTLL1 cells": {"system": "CUTLL1 cells", "test": "Cell viability (MTT/colorimetric proliferation) assay", "format": "cell-based, human", "conditions": "for effect of γ-secretase inhibition on the apoptotic response triggered by the drug: CUTLL1, 100 nM CompE or vehicle, increasing drug concentrations", "procedure": "FIG. 1. GSIs reverse glucocorticoid resistance in T-ALL cells. (a-c). […] Statistical significance was assessed with Student's t-test.\nFIG. 7. Analysis of the effects of GSI treatment in chemotherapy response. Cell viability analysis in the CUTLL1 cells treated with 100 nM CompE or vehicle only in presence of increasing concentrations of etoposide, methotrexate, L-asparaginase and vincristine. Cell viability was analyzed by an MTT assay and cytotoxicity data was represented as percentage of viable cells compared with non-treated controls. Data are means±s.d. of triplicate experiments.\nProliferation and cell size assays."}, "NOTCH1 signaling": {"system": "NOTCH1 signaling", "test": "NOTCH1 signaling in CUTLL1 cells", "format": "cell-based, human", "conditions": "CUTLL1, CompE 72 hours"}, "[1]": {"system": "CUTLL1 cells expressing luciferase", "method": "Leukemia xenograft model. Before intravenous xenograft transplantation, recipient animals were irradiated with a total x-ray dose of 300 cGy. Two million CUTLL1 cells expressing luciferase were injected via the tail vein. After a 3-week window for tumor engraftment, mice with homogeneous tumor burdens were segregated into treatment groups (8 animals per group) and treated daily with vehicle (DMSO), dexamethasone (15 mg/kg), DBZ (10 μmol/kg) or dexamethasone (15 mg/kg) plus DBZ (10 μmol/kg) by intraperitoneal injection for 14 days. Disease progression/response was evaluated weekly using bioimaging as described above by integrating the photonic flux (photons per second) through a region around each mouse. Animals were followed up for up to 10 weeks. At the end of the observation period, single cell suspensions from the spleen of surviving animals were analyzed for the presence of leukemic cells by flow cytometry after staining with human anti-CD45-FITC (BD Biosciences)."}, "[2]": {"conditions": "mouse, in vivo"}, "[3]": {"test": "DBZ metabolism by liver microsomes in vitro", "format": "in vitro ADME, mouse", "conditions": "in the presence of dexamethasone vs vehicle, 37° C.", "procedure": "To analyze the effects of dexamethasone in the hepatic metabolism of DBZ, mouse liver microsomes (Xenotech) were incubated with DBZ or dexamethasone plus DBZ at 37° C. and DBZ concentrations were analyzed by LC/MS/MS mass spectrometry in samples taken at serial timepoints using a standard curve prepared in incubation buffer with heat inactivated liver microsomes."}, "[4]": {"test": "Pharmacokinetic analysis of DBZ in mouse plasma", "format": "in vivo", "conditions": "DBZ 2 μmol/kg tail vein; mice pre-treated with dexamethasone 15 mg/kg for 5 days vs vehicle", "procedure": "Pharmacokinetic and drug metabolism studies. […] The concentration of DBZ in mouse plasma was determined using a standard curve (analyte peak area vs. concentration) generated with calibration standard pools."}, "CUTLL1 T-ALL xenografts": {"system": "CUTLL1 T-ALL xenografts", "test": "Subcutaneous xenograft model with in vivo bioimaging", "parameters": "species or system NOD/SCID mice", "conditions": "4 days of daily i.p. treatment; dexamethasone 15 mg/kg, DBZ 10 μmol/kg", "method": "Subcutaneous xenograft model and in vivo imaging. […] For subcutaneous xenograft experiments, 2.5×10^6 T-ALL cells embedded in matrigel (BD Biosciences) were injected in the flank. After 1 week, mice were segregated into treatment groups (6 animals per group) and treated daily with vehicle (DMSO), dexamethasone (15 mg/kg), DBZ (10 μmol/kg) or dexamethasone (15 mg/kg) plus DBZ (10 μmol/kg) by intraperitoneal injection. For imaging studies, mice were anesthetized by isoflurane inhalation and injected with D-luciferin at 50 mg/Kg (Xenogen) intraperitoneally. Photonic emission was imaged with the In Vivo Imaging System (IVIS, Xenogen) with a collection time of 1 minute. Tumor bioluminescence was quantified by integrating the photonic flux (photons per second) through a region encircling each tumor as determined by the LIVING IMAGES software package (Xenogen)."}, "Klf4": {"system": "Klf4", "test": "Klf4 expression in small intestine of treated mice", "format": "in vivo", "from_the_text": "KLF4 regulation by NOTCH signaling in the gut. (a,b) Immunohistochemistry analysis of Klf4 expression in small intestine of mice treated with dexamethasone, DBZ or the combination of dexamethasone plus DBZ for 5 days. Scale bars represent 100 μm. (c) Real-time PCR analysis of Klf4 transcript levels in small intestine of mice treated with dexamethasone, DBZ or the combination of dexamethasone plus DBZ for 5 and 10 days. Gapdh levels were used as a reference control. Data are means±s.d. of three animals per group.\nQuantitative real-time PCR. […] Total RNA from mouse tissues was extracted using Trizol reagent (Invitrogen). cDNA was generated with the ThermoScript RT-PCR system (Invitrogen) and analyzed by quantitative real-time PCR using SYBR Green RT-PCR Core Reagents kit and the 7300 Real-Time PCR System (Applied Biosystems). Relative expression levels were normalized with GAPDH expression used as a reference control.\nMouse toxicity model. To analyze the effects of GSI cotreatment with dexamethasone in healthy (non-leukemia-bearing) mice, we treated C57/Bl6 female animals (3 mice per group) daily with vehicle (DMSO), dexamethasone (15 mg/kg), DBZ (10 μmol/kg) and dexamethasone (15 mg/kg) plus DBZ (10 μmol/kg) by intraperitoneal injection for 5 and 10 days. […]"}, "[5]": {"test": "Mouse toxicity model (histology, immunohistochemistry, flow cytometry)", "conditions": "5 days of treatment"}}, "note": "Like-named read-outs stand apart in the source and are kept apart here."}
{"molecule": "C[C@H](NC(=O)Cc1cc(F)cc(F)c1)C(=O)N[C@H]1N=C(c2ccccc2)c2ccccc2N(C)C1=O", "note": "[CompE]", "values": [{"measurement": "cell response to CompE treatment alone", "setting": "TALL1 cells", "result": "G1 cell cycle arrest"}, {"measurement": "cell response to CompE treatment alone", "setting": "KOPTK1 cells", "result": "G1 cell cycle arrest"}, {"measurement": "PARP cleavage (Western blot)", "setting": "PARP cleavage; CUTLL1", "result": "no significant increase in PARP cleavage"}, {"measurement": "cell response to CompE alone (cell cycle, apoptosis)", "setting": "CUTLL1 cells; CUTLL1, 72 hours", "result": "modest cytostatic response characterized by G1 cell cycle arrest with little or no apoptosis"}, {"measurement": "NOTCH1 signaling", "setting": "NOTCH1 signaling", "result": "effectively blocks NOTCH1 signaling"}]}
{"molecule": "C[C@H](NC(=O)Cc1cc(F)cc(F)c1)C(=O)NC1C(=O)N(C)c2ccccc2-c2ccccc21", "note": "(stereo partly drawn) [DBZ, (2S)-2-[2-(3,5-difluorophenyl)-acetylamino]-N-(5-methyl-6-oxo-6,7-dihydro-5H-dibenzo[b,d]azepin-7-yl)-propionamide]", "values": [{"measurement": "toxicity in leukemia-bearing mice (mortality, weight loss)", "setting": "[1]; daily i.p. for 14 days", "result": "accelerated mortality associated with weight loss due to GSI toxicity"}, {"measurement": "survival", "setting": "[1]; end of the observation period (10 weeks), vs. controls", "result": "inferior outcome"}, {"measurement": "histopathology of the gut after 5 days", "setting": "[2]", "result": "moderate secretory metaplasia with increased number of goblet cells"}, {"measurement": "intestinal proliferation (Ki67 staining)", "setting": "[2]", "result": "marked reduction in proliferation"}, {"measurement": "spleen histology / cellularity", "setting": "[2]", "result": "disappearance of the marginal zone in the white pulp"}, {"measurement": "thymus histology / cellularity", "setting": "[2]", "result": "thymic atrophy with loss of the lymphoid cells from the cortex"}, {"measurement": "DBZ metabolism by liver microsomes", "setting": "[3]", "result": "decrease in DBZ metabolism"}, {"measurement": "clearance of DBZ in vivo", "setting": "[4]", "result": "reduced the clearance of DBZ"}, {"measurement": "tumor growth / tumor burden by bioimaging", "setting": "CUTLL1 T-ALL xenografts", "result": "moderate delay in tumor growth"}, {"measurement": "Klf4 expression by RT-PCR", "setting": "Klf4; 5 and 10 days", "result": "gradual increase of Klf4 expression"}, {"measurement": "KLF4 expression by immunohistochemistry", "setting": "Klf4; 5 days", "result": "marked increased in KLF4 staining"}]}
{"molecule": "C[C@@H]1C[C@H]2[C@@H]3CCC4=CC(=O)C=C[C@]4(C)[C@@]3(F)[C@@H](O)C[C@]2(C)[C@@]1(O)C(=O)CO", "note": "[dexamethasone]", "values": [{"measurement": "spleen histology / cellularity", "setting": "[5]", "result": "moderate atrophy of the white pulp with preservation of the marginal zone and disorganization of the red pulp"}, {"measurement": "thymus histology / cellularity", "setting": "[5]", "result": "thymic atrophy with loss of the lymphoid cells from the cortex"}, {"measurement": "histopathology of the gut after 5 days", "setting": "[5]; small intestine, H&E and PAS", "result": "no histopathological changes in the gut"}, {"measurement": "IC50", "setting": "CUTLL1 cells; Homo sapiens, CUTLL1 cells, 72 hours, dexamethasone in the presence of CompE (100 nM)", "result": 77, "unit": "nM"}]}
{"molecule": "COc1cc([C@@H]2c3cc4c(cc3[C@@H](O[C@@H]3O[C@@H]5CO[C@@H](C)O[C@H]5[C@H](O)[C@H]3O)[C@H]3COC(=O)[C@H]23)OCO4)cc(OC)c1O", "note": "[etoposide]", "values": [{"measurement": "effect of γ-secretase inhibition on the apoptotic response triggered by the drug", "setting": "CUTLL1 cells", "result": "did not influence the apoptotic responses"}]}
{"molecule": "CN(Cc1cnc2nc(N)nc(N)c2n1)c1ccc(C(=O)N[C@@H](CCC(=O)O)C(=O)O)cc1", "note": "[methotrexate]", "values": [{"measurement": "effect of γ-secretase inhibition on the apoptotic response triggered by the drug", "setting": "CUTLL1 cells", "result": "did not influence the apoptotic responses"}]}
{"molecule": "CC[C@]1(O)C[C@H]2CN(CCc3c([nH]c4ccccc34)[C@@](C(=O)OC)(c3cc4c(cc3OC)N(C=O)[C@H]3[C@@](O)(C(=O)OC)[C@H](OC(C)=O)[C@]5(CC)C=CCN6CC[C@]43[C@@H]65)C2)C1", "note": "[vincristine]", "values": [{"measurement": "effect of γ-secretase inhibition on the apoptotic response triggered by the drug", "setting": "CUTLL1 cells", "result": "did not influence the apoptotic responses"}]}
{"molecule": "Z-VAD", "values": [{"measurement": "effect on PARP cleavage and apoptosis triggered by CompE plus dexamethasone", "setting": "PARP cleavage; CUTLL1, Western blot and annexin V-PI staining", "result": "reversed the induction of PARP cleavage and apoptosis"}]}
{"molecule": "L-asparaginase: antineoplastic drug from Roche; inhibition of protein biosynthesis (protein, UniProt P00805 23-348, looked up) L-asparaginase 2: LPNITILATGGTIAGGGDSATKSNYTVGKVGVENLVNAVPQLKDIANVKGEQVVNIGSQDMNDNVWLTLAKKINTDCDKTDGFVITHGTDTMEETAYFLDLTVKCDKPVVMVGAMRPSTSMSADGPFNLYNAVVTAADKASANRGVLVVMNDTVLDGRDVTKTNTTDVATFKSVNYGPLGYIHNGKIDYQRTPARKHTSDTPFDVSKLNELPKVGIVYNYANASDLPAKALVDAGYDGIVSAGVGNGNLYKSVFDTLATAAKTGTAVVRSSRVPTGATTQDAEVDDAKYGFVASGTLNPQKARVLLQLALTQTKDPQQIQQIFNQY", "values": [{"measurement": "effect of γ-secretase inhibition on the apoptotic response triggered by the drug", "setting": "CUTLL1 cells", "result": "did not influence the apoptotic responses"}]}
